Assay results taken from patent US9458194B2, “Compounds useful in the treatment and/or care of the skin and their cosmetic or pharmaceutical compositions” (Lubrizol Advanced Materials, Inc., priority 2013, dated 2016).
Non-standard residues stand in square brackets, D forms with d. *: point of attachment. Palmitoyl = CCCCCCCCCCCCCCCC(=O)*; Orn = NCCC[C@H](N)C(=O)O; Dap = NC[C@H](N)C(=O)O; Dbu = Diaminobutyryl; NHHex = CCCCCCN*

Key:
[1] = test system: human LOXL1 gene promoter; test: Luminescence assay of human LOXL1 gene promoter activation (Renilla luciferase); type: cell-based; conditions: 16-24 hours
Protocol: (§1) The effect of the compounds of the invention on the activity of the fibulin-5 and LOXL1 promoters was studied and compared to the levels of basal expression of the untreated cells (negative control) and with the effect of Interleukin-1β (IL-1β) in the same conditions.
(§2) Cells from an epithelial cell line doubly transfected with fibulin-5 and LOXL1 human promoters in which the luciferase gene is under the regulatory control of said promoters (4×10^4 cells/well) were seeded in a white plate and in a 96-well transparent plate, both treated with polylysine, and were incubated in Dulbecco's Modified Eagle Medium (DMEM-Glutamax™), with 10% of FBS, 1% Penicillin-Streptomycin (P/S), 1 mg/ml of Geneticin® (G418) and […] at 37° C. in at atmosphere with 5% CO2. After the incubation, the cells were incubated for 6 hours at 37° C. in at atmosphere with 5% CO2 with DMEM without serum. Then, this medium was removed and the cells were treated with different compounds at 0.1 mg/ml, 0.5 mg/ml, 1 mg/ml or 2 mg/mL in DMEM/1% FBS for 16-24 hours. As a positive control to activate the fibulin-5 and LOXL1 promoters 10 ng/ml of IL-1β were used and as a negative control untreated cells were used, just with DMEM/1% FBS. The incubations and treatments were carried out in parallel in the white plate and the transparent plate and in triplicate for each condition. After the treatment, the relative light units per second were determined (RLU/s) in the white plate by means of consecutive quantification of the activities of Firefly luciferase (fibulin-5 promoter) and Renilla luciferase (LOXL1 promoter), and the number of total cells/well in the transparent plate by means of staining with Crystal Violet (CV). To determine the Firefly and Renilla luciferase activities the Dual-Glo Luciferase Assay System kit by Promega was used. The cells were briefly lysed and the Firefly luciferase substrate was added. After incubating for 10 min at 25° C., the RLU/s were quantified by luminescence reader (Lumistar-BMG). Then the Firefly signal was extinguished and the Renilla luciferase substrate was added. After incubating for 5 min at 25° C., the RLU/s were quantified by the same luminescence reader. With regard to the determination of the total number of cells by Crystal Violet, the CV dyes the DNA of the cells and the quantity of dye taken by the cells can be measured in an absorbency reader at 630 nm (Multiskan Ascent). The color obtained is directly proportional to the total number of cells per well. The cells were briefly incubated with 0.05% CV plus 4% Formalin for 20 minutes and after several washes with Milli-Q water, the cells were left to dry for 1-2 hours and then 0.1 M of HCl was added for its immediate reading. The RLU/s of the luciferases corresponding to each promoter were normalized by the average of the total number of cells per condition. Three independent assays with 3 measurements per assay were carried out for Ac-L-Asp-L-Val-L-Lys-L-Tyr-OH at 0.1 mg/mL and 1 mg/mL. 1 assay with 3 measurements was carried out for the other compounds and concentrations.
(§3) The increase in the activity of the promoters with regard to the levels of expression of the negative control was determined.

[2] = test system: human fibulin-5 gene promoter; test: Luminescence assay of human fibulin-5 gene promoter activation (Firefly luciferase); type: cell-based; conditions: 16-24 hours
Protocol: as §1, §2, §3

Ac-Asn-L-His-L-Lys(Ac-Asn-L-His)-4-Abz-NH2
Increase in the activity of the human promoter of the LOXL1 gene with regard to the negative control ([1]; 0.5 mg/mL): 47%
Increase in the activity of the human promoter of the FIBULIN 5 gene with regard to the negative control ([2]; 0.5 mg/mL): 53%

Ac-L-Glu-L-Val-L-Lys-L-Trp-OH (Ac-EVKW-OH)
Increase in the activity of the human promoter of the LOXL1 gene with regard to the negative control ([1]; 2 mg/mL): 22.22%
Increase in the activity of the human promoter of the FIBULIN 5 gene with regard to the negative control ([2]; 2 mg/mL): 10.92%

Palm-L-Asp-L-Val-L-Lys-L-Tyr-OH (Palmitoyl-DVKY-OH; SMILES CCCCCCCCCCCCCCCC(=O)N[C@@H](CC(=O)O)C(=O)N[C@H](C(=O)N[C@@H](CCCCN)C(=O)N[C@@H](Cc1ccc(O)cc1)C(=O)O)C(C)C)
Increase in the activity of the human promoter of the LOXL1 gene with regard to the negative control ([1]; 2 mg/mL): 25.17%
Increase in the activity of the human promoter of the FIBULIN 5 gene with regard to the negative control ([2]; 2 mg/mL): 32.47%

Ac-L-Asp-L-Val-L-Lys-L-Tyr-NH2 (Ac-DVKY-NH2)
Increase in the activity of the human promoter of the LOXL1 gene with regard to the negative control ([1]; 2 mg/mL): 22.87%
Increase in the activity of the human promoter of the FIBULIN 5 gene with regard to the negative control ([2]; 2 mg/mL): 30.26%

Ac-L-Asp-L-Val-L-Orn-L-Tyr-OH (Ac-DV[Orn]Y-OH; SMILES CC(=O)N[C@@H](CC(=O)O)C(=O)N[C@H](C(=O)N[C@@H](CCCN)C(=O)N[C@@H](Cc1ccc(O)cc1)C(=O)O)C(C)C)
Increase in the activity of the human promoter of the LOXL1 gene with regard to the negative control ([1]; 2 mg/mL): 28.35%
Increase in the activity of the human promoter of the FIBULIN 5 gene with regard to the negative control ([2]; 2 mg/mL): 44.60%

Ac-L-Asp-L-Val-L-Lys-L-Tyr-NH(n-hexyl) (Ac-DVKY-NHHex; SMILES CCCCCCNC(=O)[C@H](Cc1ccc(O)cc1)NC(=O)[C@H](CCCCN)NC(=O)[C@@H](NC(=O)[C@H](CC(=O)O)NC(C)=O)C(C)C)
Increase in the activity of the human promoter of the LOXL1 gene with regard to the negative control ([1]; 2 mg/mL): 7.54%
Increase in the activity of the human promoter of the FIBULIN 5 gene with regard to the negative control ([2]; 2 mg/mL): 18.11%

Ac-L-Asp-L-Met-L-Lys-L-Tyr-OH (Ac-DMKY-OH)
Increase in the activity of the human promoter of the LOXL1 gene with regard to the negative control ([1]; 2 mg/mL): 32.85%
Increase in the activity of the human promoter of the FIBULIN 5 gene with regard to the negative control ([2]; 2 mg/mL): 14.36%

Ac-L-Gln-L-Val-L-Dbu-L-Trp-NH2 (Ac-QV[Dbu]W-NH2)
Increase in the activity of the human promoter of the LOXL1 gene with regard to the negative control ([1]; 2 mg/mL): 68.94%
Increase in the activity of the human promoter of the FIBULIN 5 gene with regard to the negative control ([2]; 2 mg/mL): 26.39%

Ac-L-Asn-L-IIe-L-Dpr-L-Tyr-OH (Ac-NI[Dap]Y-OH; SMILES CC[C@H](C)[C@H](NC(=O)[C@H](CC(N)=O)NC(C)=O)C(=O)N[C@@H](CN)C(=O)N[C@@H](Cc1ccc(O)cc1)C(=O)O)
Increase in the activity of the human promoter of the LOXL1 gene with regard to the negative control ([1]; 2 mg/mL): 8.75%
Increase in the activity of the human promoter of the FIBULIN 5 gene with regard to the negative control ([2]; 2 mg/mL): 41.79%

Ac-L-Asn-L-Thr-L-Lys(Ac-L-Asn-L-Thr)-4-Abz-NH2
Increase in the activity of the human promoter of the LOXL1 gene with regard to the negative control ([1]; 0.5 mg/mL): 51%
Increase in the activity of the human promoter of the FIBULIN 5 gene with regard to the negative control ([2]; 0.5 mg/mL): 39%

H-L-Gln-L-Ile-L-Orn-L-Tyr-OH (H-QI[Orn]Y-OH; SMILES CC[C@H](C)[C@H](NC(=O)[C@@H](N)CCC(N)=O)C(=O)N[C@@H](CCCN)C(=O)N[C@@H](Cc1ccc(O)cc1)C(=O)O)
Increase in the activity of the human promoter of the LOXL1 gene with regard to the negative control ([1]; 2 mg/mL): 47.99%
Increase in the activity of the human promoter of the FIBULIN 5 gene with regard to the negative control ([2]; 2 mg/mL): 4.41%

Ac-L-Gln-L-Val-L-Lys-L-Trp-NH2 (Ac-QVKW-NH2)
Increase in the activity of the human promoter of the LOXL1 gene with regard to the negative control ([1]; 2 mg/mL): 18.08%
Increase in the activity of the human promoter of the FIBULIN 5 gene with regard to the negative control ([2]; 2 mg/mL): 38.10%

Ac-L-Asp-L-Val-L-Dbu-L-Tyr-OH (Ac-DV[Dbu]Y-OH)
Increase in the activity of the human promoter of the LOXL1 gene with regard to the negative control ([1]; 2 mg/mL): 28.10%
Increase in the activity of the human promoter of the FIBULIN 5 gene with regard to the negative control ([2]; 2 mg/mL): 17.08%

H-L-Gln-L-Val-L-Orn-L-Tyr-OH (H-QV[Orn]Y-OH; SMILES CC(C)[C@H](NC(=O)[C@@H](N)CCC(N)=O)C(=O)N[C@@H](CCCN)C(=O)N[C@@H](Cc1ccc(O)cc1)C(=O)O)
Increase in the activity of the human promoter of the LOXL1 gene with regard to the negative control ([1]; 2 mg/mL): 25.84%
Increase in the activity of the human promoter of the FIBULIN 5 gene with regard to the negative control ([2]; 2 mg/mL): 7.04%

Palm-L-Asn-L-Ile-L-Orn-L-Trp-NH(n-hexyl) (Palmitoyl-NI[Orn]W-NHHex; SMILES CCCCCCCCCCCCCCCC(=O)N[C@@H](CC(N)=O)C(=O)N[C@H](C(=O)N[C@@H](CCCN)C(=O)N[C@@H](Cc1c[nH]c2ccccc12)C(=O)NCCCCCC)[C@@H](C)CC)
Increase in the activity of the human promoter of the LOXL1 gene with regard to the negative control ([1]; 1 mg/mL): 18.48%
Increase in the activity of the human promoter of the FIBULIN 5 gene with regard to the negative control ([2]; 1 mg/mL): 43.65%

Ac-L-Asp-L-Ile-L-Lys-L-Tyr-NH(n-hexadecyl) (Ac-DIKY-{NH(n-hexadecyl)})
Increase in the activity of the human promoter of the LOXL1 gene with regard to the negative control ([1]; 2 mg/mL): 27.08%
Increase in the activity of the human promoter of the FIBULIN 5 gene with regard to the negative control ([2]; 2 mg/mL): 59.33%

Ac-L-Asn-L-Val-L-Dpr-L-Tyr-OH (Ac-NV[Dap]Y-OH; SMILES CC(=O)N[C@@H](CC(N)=O)C(=O)N[C@H](C(=O)N[C@@H](CN)C(=O)N[C@@H](Cc1ccc(O)cc1)C(=O)O)C(C)C)
Increase in the activity of the human promoter of the LOXL1 gene with regard to the negative control ([1]; 2 mg/mL): 3.99%
Increase in the activity of the human promoter of the FIBULIN 5 gene with regard to the negative control ([2]; 2 mg/mL): 35.49%

Ac-L-Lys-L-Cit-L-Lys(Ac-L-Lys-L-Cit)-4-Abz-NH2
Increase in the activity of the human promoter of the LOXL1 gene with regard to the negative control ([1]; 0.5 mg/mL): 22%
Increase in the activity of the human promoter of the FIBULIN 5 gene with regard to the negative control ([2]; 0.5 mg/mL): 21%

Ac-L-Gln-L-Met-L-Lys-L-Tyr-OH (Ac-QMKY-OH)
Increase in the activity of the human promoter of the LOXL1 gene with regard to the negative control ([1]; 2 mg/mL): 28.48%
Increase in the activity of the human promoter of the FIBULIN 5 gene with regard to the negative control ([2]; 2 mg/mL): 6.05%

Ac-Gly-L-Gln-L-Lys(Ac-Gly-L-Gln)-4-Abz-NH2
Increase in the activity of the human promoter of the LOXL1 gene with regard to the negative control ([1]; 0.5 mg/mL): 79%
Increase in the activity of the human promoter of the FIBULIN 5 gene with regard to the negative control ([2]; 0.5 mg/mL): 17%

Ac-L-Gln-L-Val-L-Lys-L-Tyr-OH (Ac-QVKY-OH)
Increase in the activity of the human promoter of the LOXL1 gene with regard to the negative control ([1]; 2 mg/mL): 22.61%
Increase in the activity of the human promoter of the FIBULIN 5 gene with regard to the negative control ([2]; 2 mg/mL): 19.79%

H-L-Asp-L-Val-L-Lys-L-Tyr-OH (H-DVKY-OH)
Increase in the activity of the human promoter of the LOXL1 gene with regard to the negative control ([1]; 2 mg/mL): 21.82%
Increase in the activity of the human promoter of the FIBULIN 5 gene with regard to the negative control ([2]; 2 mg/mL): 41.93%

Ac-L-Asp-L-Leu-L-Lys-L-Tyr-OH (Ac-DLKY-OH)
Increase in the activity of the human promoter of the LOXL1 gene with regard to the negative control ([1]; 2 mg/mL): 14.96%
Increase in the activity of the human promoter of the FIBULIN 5 gene with regard to the negative control ([2]; 2 mg/mL): 15.42%

Ac-L-Asn-L-Ile-L-Lys-L-Tyr-OH (Ac-NIKY-OH)
Increase in the activity of the human promoter of the LOXL1 gene with regard to the negative control ([1]; 2 mg/mL): 9.83%
Increase in the activity of the human promoter of the FIBULIN 5 gene with regard to the negative control ([2]; 2 mg/mL): 12.25%

H-L-Asn-L-Leu-L-Lys-L-Tyr-OH (H-NLKY-OH)
Increase in the activity of the human promoter of the LOXL1 gene with regard to the negative control ([1]; 2 mg/mL): 16.67%
Increase in the activity of the human promoter of the FIBULIN 5 gene with regard to the negative control ([2]; 2 mg/mL): 9.69%

Ac-L-Glu-L-Val-L-Lys-L-Tyr-OH (Ac-EVKY-OH)
Increase in the activity of the human promoter of the LOXL1 gene with regard to the negative control ([1]; 2 mg/mL): 5.59%
Increase in the activity of the human promoter of the FIBULIN 5 gene with regard to the negative control ([2]; 2 mg/mL): 27.45%
